The nature of this series: stability as a storage form. It counts as physicochemical. Conditions: statement in words, no method or data given.

With `COc1ccnc(C[S+]([O-])c2nc3cc(OC(F)F)ccc3[n-]2)c1OC.[Na+]` [sodium salt of (−)- or (S)-pantoprazole], the “formation of a stable storage form” value is “does not form a stable storage form”.

Values taken from US20080234326A1, “Novel Salts of Pantoprazole and (S) - Pantoprazole” (Altana Pharma AG, priority 2004, published 2008).
